Drawing on PMC6704710, “Preclinical evaluation of 3D185, a novel potent inhibitor of FGFR1/2/3 and CSF-1R, in FGFR-dependent and macrophage-dominant cancer models” (Journal of Experimental & Clinical Cancer Research : CR, 2019), this text covers inhibition for 1 compound.

Each structure is given as a SMILES string.

Common to all, as to assay: Eurofins kinase panel
Common to all, as to format: biochemical
Conditions in all cases: read-out: Inhibition rate (%)

One test addresses T1, EphA4(h) (Homo sapiens, UniProt P54764).
T1 construct: purchased Eurofins (KinaseProfiler)

A further test deals with T2, EphB4(h) (Homo sapiens, UniProt P54760).
T2 construct: purchased Eurofins (KinaseProfiler)
T2 sequence (P54760 16-987): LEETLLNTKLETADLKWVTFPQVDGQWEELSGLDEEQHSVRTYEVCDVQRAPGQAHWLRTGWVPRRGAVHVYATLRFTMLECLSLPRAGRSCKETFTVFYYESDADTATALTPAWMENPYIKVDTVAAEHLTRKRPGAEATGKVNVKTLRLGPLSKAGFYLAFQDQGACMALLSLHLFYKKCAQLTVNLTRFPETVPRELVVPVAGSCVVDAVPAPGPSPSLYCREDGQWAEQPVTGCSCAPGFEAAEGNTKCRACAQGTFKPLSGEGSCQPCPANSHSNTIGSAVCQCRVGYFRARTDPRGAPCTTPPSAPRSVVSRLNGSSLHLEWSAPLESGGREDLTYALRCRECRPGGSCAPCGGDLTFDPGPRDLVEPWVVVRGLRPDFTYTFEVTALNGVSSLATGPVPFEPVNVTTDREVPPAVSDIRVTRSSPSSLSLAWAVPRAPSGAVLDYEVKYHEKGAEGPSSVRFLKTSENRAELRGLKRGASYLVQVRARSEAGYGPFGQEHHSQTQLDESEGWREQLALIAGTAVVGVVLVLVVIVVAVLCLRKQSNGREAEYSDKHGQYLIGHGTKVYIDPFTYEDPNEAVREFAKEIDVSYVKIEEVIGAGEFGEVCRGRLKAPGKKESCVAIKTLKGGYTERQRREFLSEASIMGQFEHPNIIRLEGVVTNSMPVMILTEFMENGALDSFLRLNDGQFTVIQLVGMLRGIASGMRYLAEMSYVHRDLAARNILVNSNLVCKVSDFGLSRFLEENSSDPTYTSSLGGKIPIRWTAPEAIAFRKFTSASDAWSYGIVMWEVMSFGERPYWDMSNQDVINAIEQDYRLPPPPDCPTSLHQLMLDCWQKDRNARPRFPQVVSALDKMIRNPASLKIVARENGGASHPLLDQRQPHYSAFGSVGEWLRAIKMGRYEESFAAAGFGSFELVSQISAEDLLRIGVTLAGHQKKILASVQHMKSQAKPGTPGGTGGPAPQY

The next test deals with T3, MARK3(h) (Homo sapiens, UniProt P27448).
T3 construct: purchased Eurofins (KinaseProfiler)
T3 sequence (P27448 whole entry): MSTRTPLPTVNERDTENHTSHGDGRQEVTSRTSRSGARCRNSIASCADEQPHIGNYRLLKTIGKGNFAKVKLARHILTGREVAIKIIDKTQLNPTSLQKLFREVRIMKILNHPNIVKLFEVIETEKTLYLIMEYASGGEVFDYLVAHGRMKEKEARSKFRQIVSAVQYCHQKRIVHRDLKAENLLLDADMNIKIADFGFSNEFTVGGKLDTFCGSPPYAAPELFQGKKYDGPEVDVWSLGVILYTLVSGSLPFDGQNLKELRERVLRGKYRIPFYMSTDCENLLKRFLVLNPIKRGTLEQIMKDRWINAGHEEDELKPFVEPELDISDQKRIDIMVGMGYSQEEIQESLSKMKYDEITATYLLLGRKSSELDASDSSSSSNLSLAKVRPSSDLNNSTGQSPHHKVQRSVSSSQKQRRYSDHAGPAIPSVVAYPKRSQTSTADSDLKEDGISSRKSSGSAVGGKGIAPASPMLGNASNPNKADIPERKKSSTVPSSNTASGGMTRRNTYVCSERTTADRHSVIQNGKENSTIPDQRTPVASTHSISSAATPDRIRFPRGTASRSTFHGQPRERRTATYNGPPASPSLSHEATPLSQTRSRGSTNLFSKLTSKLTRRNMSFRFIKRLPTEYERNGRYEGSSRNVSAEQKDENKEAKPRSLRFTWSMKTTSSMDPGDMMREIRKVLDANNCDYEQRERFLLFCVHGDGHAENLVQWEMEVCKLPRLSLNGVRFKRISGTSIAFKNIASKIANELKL

The next test addresses T4, NEK6(h) (Homo sapiens, UniProt Q9HC98).
T4 construct: purchased Eurofins (KinaseProfiler)

Another test concerns the target T5, PEK(h) (Homo sapiens, UniProt Q9NZJ5).
T5 construct: purchased Eurofins (KinaseProfiler)
T5 sequence (Q9NZJ5 30-1116): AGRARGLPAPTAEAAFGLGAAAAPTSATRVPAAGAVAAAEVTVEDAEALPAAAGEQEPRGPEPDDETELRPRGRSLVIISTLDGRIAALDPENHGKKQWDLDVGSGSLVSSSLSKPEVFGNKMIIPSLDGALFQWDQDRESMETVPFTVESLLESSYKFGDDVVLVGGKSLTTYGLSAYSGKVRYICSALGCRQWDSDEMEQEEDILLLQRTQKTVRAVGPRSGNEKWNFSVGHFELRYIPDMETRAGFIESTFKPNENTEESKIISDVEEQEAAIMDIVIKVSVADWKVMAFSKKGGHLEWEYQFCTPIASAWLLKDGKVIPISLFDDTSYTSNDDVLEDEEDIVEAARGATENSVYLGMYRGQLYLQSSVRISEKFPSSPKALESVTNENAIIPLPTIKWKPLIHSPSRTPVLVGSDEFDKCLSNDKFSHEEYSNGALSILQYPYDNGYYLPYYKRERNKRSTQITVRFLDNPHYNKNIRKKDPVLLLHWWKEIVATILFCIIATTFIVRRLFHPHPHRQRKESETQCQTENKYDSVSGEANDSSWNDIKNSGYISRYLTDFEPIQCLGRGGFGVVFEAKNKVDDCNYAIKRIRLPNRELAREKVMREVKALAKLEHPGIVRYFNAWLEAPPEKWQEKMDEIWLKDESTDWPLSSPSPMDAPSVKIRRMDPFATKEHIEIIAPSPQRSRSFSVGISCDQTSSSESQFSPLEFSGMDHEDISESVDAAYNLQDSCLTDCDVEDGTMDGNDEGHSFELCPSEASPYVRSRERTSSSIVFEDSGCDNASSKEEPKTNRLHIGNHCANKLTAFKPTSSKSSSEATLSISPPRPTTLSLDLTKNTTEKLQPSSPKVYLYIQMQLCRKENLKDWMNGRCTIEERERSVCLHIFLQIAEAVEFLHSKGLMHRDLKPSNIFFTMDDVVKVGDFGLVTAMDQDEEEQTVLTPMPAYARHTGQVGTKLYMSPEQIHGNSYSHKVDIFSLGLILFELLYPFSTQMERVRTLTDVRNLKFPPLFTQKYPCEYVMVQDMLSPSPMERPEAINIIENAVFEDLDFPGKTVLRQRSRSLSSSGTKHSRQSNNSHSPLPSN

The target of the next test is T6, PRK1(h) (Homo sapiens, UniProt Q16512).
T6 construct: purchased Eurofins (KinaseProfiler)
T6 sequence (Q16512 whole entry): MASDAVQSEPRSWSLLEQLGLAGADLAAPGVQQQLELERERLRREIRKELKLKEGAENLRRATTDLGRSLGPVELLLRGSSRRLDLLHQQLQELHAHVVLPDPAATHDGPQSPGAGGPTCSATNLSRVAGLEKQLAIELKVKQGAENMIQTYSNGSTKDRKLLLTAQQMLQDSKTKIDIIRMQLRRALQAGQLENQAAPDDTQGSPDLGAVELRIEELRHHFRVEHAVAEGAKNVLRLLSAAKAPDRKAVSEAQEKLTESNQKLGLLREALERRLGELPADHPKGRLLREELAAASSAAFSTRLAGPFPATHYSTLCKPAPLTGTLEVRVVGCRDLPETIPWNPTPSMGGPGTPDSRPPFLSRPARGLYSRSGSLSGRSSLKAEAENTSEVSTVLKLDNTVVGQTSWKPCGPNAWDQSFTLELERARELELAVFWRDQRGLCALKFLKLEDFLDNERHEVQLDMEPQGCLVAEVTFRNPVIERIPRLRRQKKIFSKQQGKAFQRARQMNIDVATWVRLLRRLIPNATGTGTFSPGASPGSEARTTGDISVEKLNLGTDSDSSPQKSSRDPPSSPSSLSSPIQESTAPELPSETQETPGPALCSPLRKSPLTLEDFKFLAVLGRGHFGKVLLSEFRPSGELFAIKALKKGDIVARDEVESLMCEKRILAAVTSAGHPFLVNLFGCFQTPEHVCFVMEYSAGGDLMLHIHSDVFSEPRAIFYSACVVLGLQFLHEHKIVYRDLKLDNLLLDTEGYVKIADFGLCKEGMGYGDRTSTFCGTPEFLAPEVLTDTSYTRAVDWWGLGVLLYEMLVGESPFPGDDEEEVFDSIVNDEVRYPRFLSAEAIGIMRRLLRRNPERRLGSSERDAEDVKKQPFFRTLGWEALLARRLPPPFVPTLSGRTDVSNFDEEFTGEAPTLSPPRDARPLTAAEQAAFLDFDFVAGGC

A further test addresses T7, STK32A(h) (Homo sapiens, UniProt Q8WU08).
T7 construct: purchased Eurofins (KinaseProfiler)

T7 sequence (Q8WU08 whole entry): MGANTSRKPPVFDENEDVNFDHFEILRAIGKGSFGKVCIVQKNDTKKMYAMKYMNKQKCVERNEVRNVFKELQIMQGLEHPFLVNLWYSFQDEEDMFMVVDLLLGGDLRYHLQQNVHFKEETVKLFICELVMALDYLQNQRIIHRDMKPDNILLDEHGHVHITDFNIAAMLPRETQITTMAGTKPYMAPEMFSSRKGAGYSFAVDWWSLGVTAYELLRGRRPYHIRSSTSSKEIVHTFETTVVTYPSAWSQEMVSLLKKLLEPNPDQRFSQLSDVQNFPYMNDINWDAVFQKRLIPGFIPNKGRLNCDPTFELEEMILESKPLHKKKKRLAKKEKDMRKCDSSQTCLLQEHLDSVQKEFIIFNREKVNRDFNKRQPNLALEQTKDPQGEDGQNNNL
T4 sequence (Q9HC98 whole entry): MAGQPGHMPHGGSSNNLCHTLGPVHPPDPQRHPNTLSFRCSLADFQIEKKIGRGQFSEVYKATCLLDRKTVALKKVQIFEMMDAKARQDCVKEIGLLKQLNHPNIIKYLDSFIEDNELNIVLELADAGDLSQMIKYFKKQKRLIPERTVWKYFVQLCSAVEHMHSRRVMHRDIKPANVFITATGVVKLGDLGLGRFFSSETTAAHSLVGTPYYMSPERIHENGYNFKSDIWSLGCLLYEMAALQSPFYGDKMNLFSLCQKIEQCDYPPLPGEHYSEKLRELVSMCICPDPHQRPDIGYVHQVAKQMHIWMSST
T1 sequence (P54764 20-986): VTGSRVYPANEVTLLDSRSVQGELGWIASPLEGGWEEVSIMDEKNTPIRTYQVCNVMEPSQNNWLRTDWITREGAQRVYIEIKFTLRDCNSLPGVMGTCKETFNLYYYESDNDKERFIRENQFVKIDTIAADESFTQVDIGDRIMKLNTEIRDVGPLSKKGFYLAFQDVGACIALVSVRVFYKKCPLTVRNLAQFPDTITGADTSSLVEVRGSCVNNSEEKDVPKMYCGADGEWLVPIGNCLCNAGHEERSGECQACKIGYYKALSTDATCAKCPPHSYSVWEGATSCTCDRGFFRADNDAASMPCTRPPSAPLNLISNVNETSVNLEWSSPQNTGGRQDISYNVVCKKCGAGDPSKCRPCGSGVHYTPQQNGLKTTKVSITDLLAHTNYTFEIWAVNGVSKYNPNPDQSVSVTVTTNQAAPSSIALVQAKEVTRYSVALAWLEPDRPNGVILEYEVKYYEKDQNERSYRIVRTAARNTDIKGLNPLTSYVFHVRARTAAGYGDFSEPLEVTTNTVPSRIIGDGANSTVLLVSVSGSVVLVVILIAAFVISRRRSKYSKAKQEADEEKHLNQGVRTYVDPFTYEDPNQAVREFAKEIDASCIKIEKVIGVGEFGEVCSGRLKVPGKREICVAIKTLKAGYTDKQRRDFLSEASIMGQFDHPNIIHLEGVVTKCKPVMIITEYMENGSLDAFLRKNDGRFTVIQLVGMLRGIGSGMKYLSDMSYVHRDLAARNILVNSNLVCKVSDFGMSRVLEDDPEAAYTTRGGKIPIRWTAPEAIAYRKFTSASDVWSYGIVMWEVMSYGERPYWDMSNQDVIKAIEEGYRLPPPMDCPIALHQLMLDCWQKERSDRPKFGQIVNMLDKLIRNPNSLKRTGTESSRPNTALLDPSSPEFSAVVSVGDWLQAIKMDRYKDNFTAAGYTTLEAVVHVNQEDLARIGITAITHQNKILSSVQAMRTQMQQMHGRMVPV

One may read the inhibition as the change of the read-out against control, counted positive when it falls. For the compound `COc1cc(OC)c(Cl)c(-c2ccc3c(NC(=O)c4ccc(N5CCNC(C)(C)C5)cc4)n[nH]c3n2)c1Cl` [3D185], the inhibition at 0.01 µM is 14% at EphA4(h) (10 nM); 8% at EphB4(h) (10 nM); 7% on MARK3(h) (10 nM); -7% on NEK6(h) (10 nM); -7% on PEK(h) (10 nM); 2% on PRK1(h) (10 nM). Also, the inhibition at 0.01 µM at STK32A(h) (10 nM) is -5%. The inhibition at 0.1 µM on EphA4(h) (100 nM) is 5%; at EphB4(h) (100 nM), -5%; on MARK3(h) (100 nM), -6%; at NEK6(h) (100 nM), 4%; at PEK(h) (100 nM), 6%; on PRK1(h) (100 nM) it was 1%. Further, the inhibition at 0.1 µM at STK32A(h) (100 nM) is 0%. Besides, the inhibition at 1 µM at EphA4(h) (1000 nM) is 13%; at EphB4(h) (1000 nM), 2%; at MARK3(h) (1000 nM), -4%; on NEK6(h) (1000 nM), 2%; at PEK(h) (1000 nM), 55%; on PRK1(h) (1000 nM) it was 2%. For the same compound, the inhibition at 1 µM on STK32A(h) (1000 nM) was 2%.
